# From patent US20190192532A1, “COMBINATION THERAPY OF BROMODOMAIN INHIBITORS AND CHECKPOINT BLOCKADE” (DANA-FARBER CANCER INSTITUTE, priority 2015, published 2019)
# Columns and labels:
# PD-L1 (CD274) = assay: PD-L1 expression on Eμ-Myc lymphoma cell lines by flow cytometry (MFI) after in vitro treatment; format: cell-based, murine; settings: for expression of PD-L1 (CD274) on lymphoma cells (MFI): 24 hours in vitro, vs DMSO
# Method: (§1) […] lymphoma cells (5×10^5) were incubated in the presence of JQ1, or DMSO, in 500 μL culture media in a 48 well plates (Corning, N.Y.) prior to analysis of PD-L1/L2 expression by flow cytometry. Human RPMI-8226 and L540 cells (5×10^5) were incubated in the presence of JQ1, or DMSO vehicle, in 500 μL culture media in a 48 well plates (Corning, N.Y.). Additionally RPMI-8226 cells were cultured with 100 ng/ML, IFN-γ as a single agent and in combination with JQ1, prior to analysis of PD-L1/L2 expression by flow cytometry.
# Cell suspensions were washed once with ice-cold flow cytometry buffer (2% FCS and 0.02% NaN3 in PBS) and resuspended in anti-CD16/32 monoclonal antibody (clone 2.4G2) on ice for 30 minutes to block Fc receptors. Cell suspensions were washed once with ice-cold flow cytometry buffer and stained on ice for 30 minutes with the following conjugated antibodies: anti-mouse CD3 (pacific blue, 1:400, clone 17A2), anti-mouse CD4 (APC, 1:400, clone RM4-5), anti-mouse CD8 (PE-Cy7, 1:400, clone 53-6.7), anti-mouse PD-1 (FITC, 1:400, clone J43), anti-mouse PD-L1 (PE, 1:100, clone MIH5), anti-mouse PD-L2 (Biotin, 1:200, clone TY25), anti-human PD-L1 (PE, 1:200, clone 29E.2A3), or anti-human PD-L2 (Biotin, 1:200, clone 24F.10C12). Biotinylated antibodies were subsequently incubated with Streptavidin-PE-Cy7 (1:1000, catalogue number 25-4317-82) or Streptavidin-Pacific Blue (1:1000, catalogue number 48-4317-82) for 30 minutes on ice. Anti-Armenian Hamster IgG (FITC, 1:400, catalogue number 554011), Mouse IgG2aκ (PE, 1:100, clone RTK2758), Rat IgG2aκ (Biotin, 1:200, clone eBR2a), Mouse IgG2bκ (PE, 1:200, catalogue number 559529), and Mouse IgG2aκ (Biotin, 1:200, clone eBM2a) were used as isotype control antibodies, respectively. All antibodies were purchased from BioLegend (San Diego, Calif.), eBiosciences (San Diego, Calif.), or BD Bioscience (San Diego, Calif.). Cell suspensions were washed once with ice-cold flow cytometry buffer, resuspended in ice-cold flow cytometry buffer containing 7-AAD (1:1000, BD Bioscience) and analyzed by flow cytometry. Data was collected on a LSR Fortessa flow cytometer (BD Biosciences) and analyzed using FlowJo Software, version 10.0.7 (Tree Star).
# As described in FIGS. 2A and 2B, JQ1 downregulates the expression of PD-L1 (CD274) on lymphoma cells as determined by flow cytometry analysis. Graphs showing the mean fluorescence intensity (MFI) of PD-L1 on Eμ-Myc lymphoma cell lines (FIG. 2A) ^#4242 and (FIG. 2B) ^#299 over-expressing Bcl-2 following 24 hours treatment in vitro with indicated concentrations of JQ1, or DMSO control are provided. Representative data are presented as mean MFI of cells cultured and analyzed in triplicate±S.E.M. (****p <0.0001, Student's t test).
# PD-L1 downregulation following BET inhibition is time-dependent. Flow cytometry analysis of PD-L1 expression on Eμ-Myc lymphoma cell line ^#6066 following treatment in vitro with 500 nM JQ1 or DMSO control for indicated time points was performed.
# Chemically distinct bromodomain inhibitors downregulate the expression of PD-L1 (CD274) on lymphoma cells, as shown by flow cytometry. […] Representative data are presented as mean MFI of cells cultured and analyzed in triplicate±S.E.M. (***p<0.001, Student's t test).
# Eμ-Myc lymphoma = assay: Survival of mice bearing transplanted Eμ-Myc lymphoma (Kaplan-Meier); format: in vivo, mouse; settings: 50 mg/kg daily i.p.
# Method: (§2) Female C57BL/6 mice were purchased. C57BL/6.Rag2cγ^−/− mice were bred in house. C57BL/6.Rag1^−/− mice were purchased. For transplantation of Eμ-Myc lymphomas in vivo, cohorts of six- to eight-week-old syngeneic mice were inoculated via tail vein injection with 1-4×10^5 Eμ-Myc lymphoma cells. Mice were treated with 50 mg/kg JQ1, reconstituted in 1 part DMSO to 9 parts 10% (w/v) Hydroxypropyl-β-cyclodextrin (HPBCD; Cyclodextrin Technologies Development Inc., Gainesville, Fla.) In sterile water, or DMSO vehicle control. Mice were dosed once daily (5 days/week) via intra-peritoneal (i.p.) injection, commencing three days post-intravenous inoculation, for a total of 5 weeks therapy or until treatment failure. Tumor-bearing C57BL/6 mice were treated with the following monoclonal antibodies via i.p. injection: Anti-4-1-BB (Anti-CD137, 100 μg, 3H3; BioXCell), anti-PD-1 (100 μg, […]; BioXCell), or control immunoglobulin. (cIg, Rat IgG2a, 2A3, 100 μg; BioXCell). Anti-PD-1 mAb was dosed on days 5, 10, 15, and 20 post tumor transplant. Anti-4-1BB mAb was dosed on days 5, 8, and 11 post tumor transplant.
# Cohorts of mice on a C57BL/6 background (n=10 per treatment group) were injected intravenously with 1-5×10^5 Eμ-Myc lymphoma cells three days prior to commencement of daily dosing with JQ1 (50 mg/kg), or DMSO vehicle., via i.p. injection. […]
# PD-L1 [1] = assay: PD-L1 expression on tumor cells of treated lymphoma-bearing mice by flow cytometry; format: in vivo, mouse
# Method: (§3) Cell suspensions were washed once with ice-cold flow cytometry buffer (2% FCS and 0.02% NaN3 in PBS) and resuspended in anti-CD16/32 monoclonal antibody (clone 2.4G2) on ice for 30 minutes to block Fc receptors. […] Cell suspensions were washed once with ice-cold flow cytometry buffer, resuspended in ice-cold flow cytometry buffer containing 7-AAD (1:1000, BD Bioscience) and analyzed by flow cytometry. Data was collected on a LSR Fortessa flow cytometer (BD Biosciences) and analyzed using FlowJo Software, version 10.0.7 (Tree Star). […]
# (§4) A cohort of mice were injected intravenously with 1-5×10^5 Eμ-Myc lymphoma ^#4242 cells and left for 12 days to develop bulky nodal disease. Peripheral lymph nodes were harvested 16 hours following a single dose of JQ1 (50 mg/kg), or DMSO vehicle (n=3 per treatment group) and assessed by flow cytometry. […]
# A cohort of mice were injected intravenously with 1-5×10^5 Eμ-Myc lymphoma ^#4242/Bcl-2 cells and treated daily with JQ1 (50 mg/kg), or DMSO vehicle (n=5 per treatment group). At day 18, peripheral blood was obtained and tumor cells were assessed by flow cytometry. […]
# PD-L2 (CD273) = assay: PD-L2 expression on tumor cells of treated lymphoma-bearing mice by flow cytometry; format: in vivo, mouse; settings: single dose 50 mg/kg; peripheral lymph nodes 16 hours after dose; Eμ-Myc lymphoma #4242 in C57BL/6 mice
# Method: Cell suspensions were washed once with ice-cold flow cytometry buffer (2% FCS and 0.02% NaN3 in PBS) and resuspended in anti-CD16/32 monoclonal antibody (clone 2.4G2) on ice for 30 minutes to block Fc receptors. Cell suspensions were washed once with ice-cold flow cytometry buffer and stained on ice for 30 minutes with the following conjugated antibodies: anti-mouse CD3 (pacific blue, 1:400, clone 17A2), anti-mouse CD4 (APC, 1:400, clone RM4-5), anti-mouse CD8 (PE-Cy7, 1:400, clone 53-6.7), anti-mouse PD-1 (FITC, 1:400, clone J43), anti-mouse PD-L1 (PE, 1:100, clone MIH5), anti-mouse PD-L2 (Biotin, 1:200, clone TY25), anti-human PD-L1 (PE, 1:200, clone 29E.2A3), or anti-human PD-L2 (Biotin, 1:200, clone 24F.10C12). […] Cell suspensions were washed once with ice-cold flow cytometry buffer, resuspended in ice-cold flow cytometry buffer containing 7-AAD (1:1000, BD Bioscience) and analyzed by flow cytometry. Data was collected on a LSR Fortessa flow cytometer (BD Biosciences) and analyzed using FlowJo Software, version 10.0.7 (Tree Star). […]
# as §4
# PD-L1 transcript = assay: Quantitative real-time PCR of PD-L1 mRNA in Eμ-Myc lymphoma cell lines; format: cell-based, Mus musculus; settings: 1000 nM; Eμ-Myc lymphoma #4242 and #299 over-expressing Bcl-2; indicated time points
# Method: Eμ-Myc lymphomas cells were cultured in the presence of JQ1, or DMSO, as described above. RNA was extracted from cell pellets using the Nucleospine® RNA extraction kit (Macherey-Nagel, Bethlehem, Pa.) as per the manufacturer's instructions. cDNA was synthesized according to the manufacturer's instructions (Promega, Sydney, NSW). Quantitative PCR analysis of samples was performed on the 7900HT Fast Real-Time PCR System (Applied Biosystems, Mulgrave, VIC, Australia') with SYBR-green ROX mix (Agilent, Mulgrave, VIC, Australia). GAPDH was used as the murine control genes. Primer sequences were: Mus musculus PD-L1 F: […] (SEQ ID NO: 1) R: […] (SEQ ID NO: 2), Mus musculus GAPDH F: […] (SEQ ID NO: 3) R: […] (SEQ ID NO: 4).
# Quantitative real-time-PCR (qPCR) analysis of PD-L1 mRNA levels in Eμ-Myc lymphoma cell lines (FIG. 2G) ^#4242 and (FIG. 2H) ^#299 over-expressing Bcl-2 following treatment with 1000 nM JQ1, or DMSO control, was performed at indicated time points. Transcript levels are presented as fold change compared to DMSO. Data are presented as mean fold-change from 3 separate experiments±S.E.M. (**p<0.01, ***p<0.001, ****p<0.0001, Student's t test).
# PD-L1 [2] = assay: Constitutive PD-L1 expression on Hodgkin lymphoma cell line L540 by flow cytometry; format: cell-based, human; settings: L540 cells; 24 hours in vitro; indicated concentrations
# Method: as §1, §3
# PD-L1 [3] = assay: IFN-γ-inducible PD-L1 expression on multiple myeloma cell line RPMI-8226 by flow cytometry; format: cell-based, human; settings: RPMI-8226 cells; 500 nM with 100 ng/mL IFN-γ; 24 hours
# Method: as §1
# Cell suspensions were washed once with ice-cold flow cytometry buffer (2% FCS and 0.02% NaN3 in PBS) and resuspended in anti-CD16/32 monoclonal antibody (clone 2.4G2) on ice for 30 minutes to block Fc receptors. […] Cell suspensions were washed once with ice-cold flow cytometry buffer, resuspended in ice-cold flow cytometry buffer containing 7-AAD (1:1000, BD Bioscience) and analyzed by flow cytometry. Data was collected on a LSR Fortessa flow cytometer (BD Biosciences) and analyzed using FlowJo Software, version 10.0.7 (Tree Star).
# JQ1 treatment downregulates the IFN-γ-inducible expression of PD-L1 on human myeloma cell lines. […] Representative data are presented as mean MFI of cells cultured and analyzed in triplicate=S.E.M. (*p<0.05, Student's t test).
# Eμ-Myc lymphoma #299 = assay: Survival of mice bearing Eμ-Myc lymphoma #299 treated with JQ1 plus anti-PD-1 or anti-4-1BB antibody; format: in vivo, mouse; settings: JQ1 50 mg/kg i.p., 25 doses, combined with 100 μg anti-PD-1 (days 5, 10, 15, 20) or anti-4-1BB (days 5, 8, 11)
# Method: as §2
# FIGS. 4A and 4B show Kaplan-Meier survival curves representing cohorts of […] (n=6 per treatment group) injected intravenously with 1-5×10^5 Eμ-Myc lymphoma ^#299 cells. […]
# [4] = Eμ-Myc lymphoma cell line #6066, 1 μM
structure (smiles),measurement,setting,value
COc1cc2c(cc1-c1c(C)noc1C)ncc1[nH]c(=O)n([C@H](C)c3ccccn3)c12 [IBET-1.51],expression of PD-L1 (CD274) on lymphoma cells (MFI),PD-L1 (CD274); [4],downregulate
CCNC(=O)C[C@@H]1N=C(c2ccc(Cl)cc2)c2cc(OC)ccc2-n2c(C)nnc21 [IBET-762],expression of PD-L1 (CD274) on lymphoma cells (MFI),PD-L1 (CD274); [4],downregulate
Cc1sc2c(c1C)C(c1ccc(Cl)cc1)=N[C@@H](CC(=O)OC(C)(C)C)c1nnc(C)n1-2 [JQ1],survival of JQ1-treated immune deficient mice versus JQ1-treated wild type mice,Eμ-Myc lymphoma; C57BL/6.Rag2cγ−/− and C57BL/6.Rag1−/− versus wild type C57BL/6,succumbed to disease significantly earlier
same,survival versus DMSO vehicle,"Eμ-Myc lymphoma; immune competent (C57BL/6) and immune deficient (Rag2cγ−/−, Rag1−/−) mice, Eμ-Myc lymphoma #4242 and #299",significant survival advantage
same,expression of PD-L1 (CD274) on lymphoma cells (MFI),"PD-L1 (CD274); Eμ-Myc lymphoma #4242 and #299 over-expressing Bcl-2, indicated concentrations",downregulates
same,time course of PD-L1 downregulation,"PD-L1 (CD274); Eμ-Myc lymphoma cell line #6066, 500 nM, indicated time points",time-dependent
same,expression of PD-L1 (CD274) on lymphoma cells (MFI),PD-L1 (CD274); [4],downregulate
same,"PD-L1 expression on circulating tumor cells (MFI), chronic treatment","PD-L1 [1]; 50 mg/kg daily, peripheral blood at day 18, Eμ-Myc lymphoma #4242/Bcl-2 in C57BL/6 mice",express lower levels of PD-L1
same,"PD-L1 expression on live GFP-positive tumor cells (MFI), acute dose","PD-L1 [1]; single dose 50 mg/kg, peripheral lymph nodes 16 hours after dose, Eμ-Myc lymphoma #4242 in C57BL/6 mice",rapidly downregulates
same,"PD-L2 expression on live GFP-positive tumor cells (MFI), acute dose",PD-L2 (CD273),rapidly downregulates
same,PD-L1 mRNA level (fold change compared to DMSO),PD-L1 transcript,rapidly downregulates
same,constitutive expression of PD-L1 (MFI),PD-L1 [2],downregulates
same,IFN-γ-inducible expression of PD-L1 (MFI),PD-L1 [3],downregulates
same,anti-tumor response (survival) in combination therapy,Eμ-Myc lymphoma #299,Promotes Curative Anti-Tumor Responses
COc1cc(OC)c2c(=O)[nH]c(-c3cc(C)c(OCCO)c(C)c3)nc2c1 [RVX-208],expression of PD-L1 (CD274) on lymphoma cells (MFI),"PD-L1 (CD274); Eμ-Myc lymphoma cell line #6066, 10 μM",downregulate
Cc1sc2c(c1C)C(c1ccc(Cl)cc1)=N[C@@H](CC(=O)Nc1ccc(O)cc1)c1nnc(C)n1-2 [Y803],expression of PD-L1 (CD274) on lymphoma cells (MFI),PD-L1 (CD274); [4],downregulate
Cc1sc2c(c1C)C(c1ccc(Cl)cc1)=N[C@@H](CC(=O)NCCCCNC(=O)COc1cccc3c1C(=O)N(C1CCC(=O)NC1=O)C3=O)c1nnc(C)n1-2 (some centres unmarked) [dBET1],expression of PD-L1 (CD274) on lymphoma cells (MFI),PD-L1 (CD274); [4],downregulate
